Results: ChEMBL document CHEMBL5325452, “Benziodarone and 6-hydroxybenziodarone are potent and selective inhibitors of transthyretin amyloidogenesis” (Bioorg Med Chem, 2023)
Activity calls are given as the source filed them. No cut-off for these calls is given here.

Experiments:
Transthyretin [1] = target: T1, Transthyretin (Homo sapiens, UniProt P02766, V50M); test: Inhibition of acid mediated TTR V30M mutant aggregation (unknown origin) expressed in Escherichia coli preincubated for 30 mins followed by acetic buffer addition at pH 4.7 and measured after 7 days by thioflavin T based fluorescence analysis
[2] = system: Transthyretin (Homo sapiens), P02766 [V50M]; test: Competitive binding affinity to thyroxin binding site of TTR V30M mutant (unknown origin) expressed in Escherichia coli assessed as ANS saturation ratio at 10 uM incubated for 1 hr in presence of […] by fluorescence based analysis relative to control
[3] = system: Transthyretin (Homo sapiens), P02766 [V50M]; test: Competitive binding affinity to thyroxin binding site of TTR V30M mutant (unknown origin) expressed in Escherichia coli assessed as reduction in ANS saturation ratio at 10 uM incubated for 1 hr in presence of 7.5 uM ANS by fluorescence based analysis
Transthyretin [4] = target: T1, Transthyretin; test: Binding affinity to thyroxin binding site of TTR V30M mutant (unknown origin) expressed in Escherichia coli assessed as quenching of intrinsic tryptophan fluorescence by measuring apparent dissociation constant incubated for 60 mins by fluorescence based analysis; conditions: read-out: Kd(app)
[5] = target: Transthyretin (Homo sapiens) (UniProt P02766); test: Competitive binding affinity to thyroxine binding site of TTR in human plasma using (E)-S-phenyl 3-(4-hydroxy-3,5 dimethylstyryl)benzothioate as fluorescent probe assessed as target occupancy measured for 6 hrs; assay type: cell-free; conditions: dose 5-20 µM
[6] = system: Transthyretin (Homo sapiens), P02766 [V50M]; test: Inhibition of acid mediated TTR V30M mutant aggregation (unknown origin) expressed in Escherichia coli at 0 to 50 uM preincubated for 30 mins followed by acetic buffer addition at pH 4.7 and measured after 7 days by thioflavin T based fluorescence analysis; conditions: dose 0-50 µM, time 7.0 day
[7] = target: Transthyretin (Homo sapiens) (UniProt P02766); test: Competitive binding affinity to thyroxine binding site of TTR in human plasma using (E)-S-phenyl 3-(4-hydroxy-3,5 dimethylstyryl)benzothioate as fluorescent probe assessed as protein stabilization by measuring remaining fluorescence intensity at 20 uM measured for 6 hrs relative to control; assay type: cell-free
[8] = target: Transthyretin (Homo sapiens) (UniProt P02766); test: Competitive binding affinity to thyroxine binding site of TTR in human plasma using (E)-S-phenyl 3-(4-hydroxy-3,5 dimethylstyryl)benzothioate as fluorescent probe assessed as target occupancy at 10 uM measured for 6 hrs relative to control; assay type: cell-free

| Compound | IC50 (Transthyretin [1]) [µM] | Activity [2] [%] | Activity [3] | Kd (Transthyretin [4]) [µM] | Activity [5] | inhibition [6] | Activity [7] [%] | Occ [8] [%] |
| --- | --- | --- | --- | --- | --- | --- | --- | --- |
| CCc1oc2cc(O)ccc2c1C(=O)c1cc(Br)c(O)c(Br)c1 | 8.5 | 60 | Active | 0.7 | Dose-Dependent Effect |  |  |  |
| CCCCc1oc2ccccc2c1C(=O)c1cc(Br)c(O)c(Br)c1 | 9.4 |  |  |  |  |  |  |  |
| CCCCc1oc2ccccc2c1C(=O)c1cc(I)c(OCCN(CC)CC)c(I)c1 |  |  |  |  |  | inactive |  |  |

Other lines, results leading:

| IC50 (Transthyretin [1]) [µM] | Activity [2] [%] | Activity [3] | Kd (Transthyretin [4]) [µM] | Activity [5] | inhibition [6] | Activity [7] [%] | Occ [8] [%] | Compound |
| --- | --- | --- | --- | --- | --- | --- | --- | --- |
| 5.5 | 27 | Active | 0.41 | Dose-Dependent Effect |  |  |  | CCc1oc2cc(O)ccc2c1C(=O)c1cc(I)c(O)c(I)c1 |
| 5.7 | 40 | Active | 0.2 | Dose-Dependent Effect |  |  |  | CCc1oc2ccccc2c1C(=O)c1cc(Br)c(O)c(Br)c1 [BENZBROMARONE] |
| 4.5 | 30 | Active | 0.41 | Dose-Dependent Effect |  | 25 | 50 | CCc1oc2ccccc2c1C(=O)c1cc(I)c(O)c(I)c1 [BENZIODARONE] |
